In patent publication US20150031102A1, “METHODS AND COMPOSITIONS FOR ENHANCED PRODUCTION OF BUTANOL BY CLOSTRIDIA” (Butrolix LLC, priority 2012, published 2015):
Values joined by “and” are separate entries in the source; they are usually repeats but may differ in a detail not shown here. Equal entries are not always repeated.

Test system: C. acetobutylicum ATCC 824
Test: Sequential batch cultures of C. acetobutylicum ATCC 824 grown at 30° C. in YEPG (growth OD600, final pH, ceric ion reactive compounds)
Format: cell-based, Clostridium acetobutylicum
Settings: for Final pH / Optical density at 600 nm / Optical density of ceric ion reactive compounds measured at 500 nm: 96 h culture
Method: Clostridium acetobutylicum ATCC 824 and C. beijerinckii NCIMB 8052 are available from several commercial microbial culture collections including the American Type Culture Collection (ATCC), Manassas, Va., USA. The strain grown at 30 C or 37 C in YE broth, which contained, per liter: 5.0 g yeast extract, 2.5 g casamino acids, 1.0 g L-asparagine, 0.5 g cysteine·HCl, 56 mg K2HPO4, 56 mg KH2PO4, 82 mg anhydrous MgSO4, 8 mg FeSO4.H2O, 6 mg MnSO4.H2O and 10 g glucose. Alternatively, strains were grown in YEPG broth, which was identical to YE expect that K2HPO4 and KH2PO4 were increased to 145 mg/L each and glucose was increased to 60 g/L. The pH of the media was adjusted to 7.2 using 45% KOH prior to sterilization by autoclaving. Media were solidified by addition of 1.5% Bacteriological Agar, Acumedia Manufacturers, Inc., Lansing, Mich. All cultures were grown in anaerobic conditions using the AnaeroPack System, Mitsubishi Gas Chemical Co., Inc., Japan, and GasPak EZ Gas Generating Sachets, Becton, Dickinson and Co., Sparks, Md. Spore stocks were kept at room temperature on agar-solidified media and were activated by suspending spores in 0.5 mL to 1.0 mL of medium followed by heating for 10 min at 80 C before inoculation into growth medium.
Growth of bacterial cultures was measured spectrophotometrically using optical density at 600 nm and pH of cell-free culture supernatants was measured using a hand-held Shindengen ISFET pH Meter KS501, Shendengen Electric Manufacturing Co., Ltd., Bannockburn, Ill.
Total alcohols in cell-free culture supernatants were measured using a modification of a colorimetric method based on ceric ammonium nitrate (Reid and Truelove, 1952). The ceric ion reagent was prepared by adding 1.3 mL of concentrated nitric acid to 40 mL of distilled water, then 10.96 g of ceric ammonium nitrate was dissolved in the dilute nitric acid solution and the solution was brought to a final volume of 50 mL. For the assay, […] of butanol standard or culture supernatant was mixed with […] distilled water in a disposable plastic cuvette followed by addition of […] of the ceric ion reagent. The sample was mixed by inverting the cuvette six times then exactly two minutes later the optical density at 500 nm wavelength was measured. The concentration of total alcohols was determined by comparison with a standard curve prepared by using butanol diluted in distilled water.
Spores of C. acetobutylicum ATCC 824 were germinated and grown overnight at 30 C under anaerobic conditions in YEPG medium. After about 24 h of growth, […] of the culture was transferred (transfer 1) to each of four flasks that contained 10 mL of YEPG and either had no treatment or were treated with peptide SEQ ID NO: 143 (see Table 8 and FIG. 1) at 1 nM, 10 nM or 50 nM. Thereafter, […] of each culture was transferred, at the same time, every 24-48 h to 10 mL of fresh YEPG that contained the same peptide treatment or no treatment. Each culture was stopped after 96 hours of incubation and optical density, pH and ceric ion reactive chemicals were measured. Sequential batch culturing was continued through 5 transfers at which point the untreated culture and those treated with 1 nM and 10 nM of peptide SEQ ID NO: 143 had stopped growing (Table 9). […] In addition, treatment with 1 nM of peptide SEQ ID NO: 143 appeared to stop growth at the first transfer, but growth was restored in the second and third transfers.

SYPGWSW [peptide SEQ ID NO: 143]
Extension of growth during sequential batch cultures (1 nM, 30 °C, untreated culture stopped earlier): growth through the third transfer | Final pH (1 nM, transfer 1, 30 °C): 6.0 | Optical density at 600 nm (1 nM, transfer 1, 30 °C): 0.005 | Optical density of ceric ion reactive compounds measured at 500 nm (1 nM, transfer 1, 30 °C): 0.048 | Final pH (1 nM, transfer 2, 30 °C): 4.4 | Optical density at 600 nm (1 nM, transfer 2, 30 °C): 2.274 | Optical density of ceric ion reactive compounds measured at 500 nm (1 nM, transfer 2, 30 °C): 0.119 | Final pH (1 nM, transfer 3, 30 °C): 4.4 | Optical density at 600 nm (1 nM, transfer 3, 30 °C): 2.165 | Optical density of ceric ion reactive compounds measured at 500 nm (1 nM, transfer 3, 30 °C): 0.167 | Final pH (1 nM, transfer 4, 30 °C): 6.0 | Optical density at 600 nm (1 nM, transfer 4, 30 °C): 0.044 | Optical density of ceric ion reactive compounds measured at 500 nm (1 nM, transfer 4, 30 °C): 0.031 | Final pH (1 nM, transfer 5, 30 °C): 6.0 | Optical density at 600 nm (1 nM, transfer 5, 30 °C): 0.004 | Optical density of ceric ion reactive compounds measured at 500 nm (1 nM, transfer 5, 30 °C): 0.040 | Extension of growth during sequential batch cultures (10 nM, 30 °C): growth through the fourth transfer | Final pH (10 nM, transfer 1, 30 °C): 4.4 | Optical density at 600 nm (10 nM, transfer 1, 30 °C): 2.001 | Optical density of ceric ion reactive compounds measured at 500 nm (10 nM, transfer 1, 30 °C): 0.175 | Final pH (10 nM, transfer 2, 30 °C): 4.4 | Optical density at 600 nm (10 nM, transfer 2, 30 °C): 2.245 | Optical density of ceric ion reactive compounds measured at 500 nm (10 nM, transfer 2, 30 °C): 0.184 | Final pH (10 nM, transfer 3, 30 °C): 4.5 | Optical density at 600 nm (10 nM, transfer 3, 30 °C): 2.379 | Optical density of ceric ion reactive compounds measured at 500 nm (10 nM, transfer 3, 30 °C): 0.187 | Final pH (10 nM, transfer 4, 30 °C): 4.5 | Optical density at 600 nm (10 nM, transfer 4, 30 °C): 2.266 | Optical density of ceric ion reactive compounds measured at 500 nm (10 nM, transfer 4, 30 °C): 0.192 | Final pH (10 nM, transfer 5, 30 °C): 5.9 and 6.0 | Optical density at 600 nm (10 nM, transfer 5, 30 °C): 0.028 | Optical density of ceric ion reactive compounds measured at 500 nm (10 nM, transfer 5, 30 °C): 0.043 | Extension of growth during sequential batch cultures (50 nM, 30 °C): growth through the fifth transfer | Final pH (50 nM, transfer 1, 30 °C): 4.4 | Optical density at 600 nm (50 nM, transfer 1, 30 °C): 1.879 | Optical density of ceric ion reactive compounds measured at 500 nm (50 nM, transfer 1, 30 °C): 0.159 | Final pH (50 nM, transfer 2, 30 °C): 4.6 | Optical density at 600 nm (50 nM, transfer 2, 30 °C): 2.089 | Optical density of ceric ion reactive compounds measured at 500 nm (50 nM, transfer 2, 30 °C): 0.189 | Final pH (50 nM, transfer 3, 30 °C): 4.5 | Optical density at 600 nm (50 nM, transfer 3, 30 °C): 2.313 | Optical density of ceric ion reactive compounds measured at 500 nm (50 nM, transfer 3, 30 °C): 0.183 | Final pH (50 nM, transfer 4, 30 °C): 4.4 | Optical density at 600 nm (50 nM, transfer 4, 30 °C): 2.187 | Optical density of ceric ion reactive compounds measured at 500 nm (50 nM, transfer 4, 30 °C): 0.187 | Final pH (50 nM, transfer 5, 30 °C): 4.3 | Optical density at 600 nm (50 nM, transfer 5, 30 °C): 2.173 | Optical density of ceric ion reactive compounds measured at 500 nm (50 nM, transfer 5, 30 °C): 0.174 | Culture degeneration in terms of number of sequential transfers and production of total alcohols (30 °C): prevent culture degeneration | Number of additional sequential transfers versus a culture without added peptide (30 °C): at least four more times | Expected extension of time in continuous culture (extrapolated from sequential batch transfers, dilution rate of 0.05/hour): about five-fold | Expected time in continuous culture (extrapolated from sequential batch transfers, dilution rate of 0.05/hour, from about 140 hours without peptide): about 700 hours
